Consider 10 compounds from patent publication US11697818B2, “Pyruvate-responsive biosensor, and construction method and use thereof” (priority 2020, dated 2023).

The subject of this test is strain 168-PR containing the plasmid PHT01-P43D-GFP. Put plainly: Specificity (orthogonality) of pyruvate biosensor towards inducing agents. Type of test: cell-based, Bacillus subtilis. To be noted: 5 g of inducing agent added to the medium; strain 168-PR with PHT01-P43D-GFP. As for the experimental part: 2. Detection method for Relative fluorescence intensity: The strain to be determined for the fluorescence intensity is streaked into LB solid medium containing chloramphenicol (5 μg/mL) in a plate. Single colonies are picked up and inoculated into LB liquid medium and incubated at 37° C. and 220 rpm for 12 h. Then the cell suspension is inoculated into 200 μL of LB liquid medium in a 96-well fluorescent microplate in an amount of 2% (V/V), and incubated at 37° C. and 900 rpm. The microplate is removed at different times, and the fluorescence intensity (excitation light: 488 nm, absorption light: 520 nm) and cell density (600 nm) are determined on the Cytation microplate reader (BioTek).
Turning to `CC(C)S[C@@H]1O[C@H](CO)[C@H](O)[C@H](O)[C@H]1O` [IPTG], the “induction of the activity of the pyruvate biosensor” value is “only pyruvate can significantly induce”.

Regarding `CC(=O)O` [acetic acid], the “induction of the activity of the pyruvate biosensor” value was “only pyruvate can significantly induce”. The entry for `CC(=O)C(C)O` (stereo not shown) [acetoin] is “only pyruvate can significantly induce”; for `C[C@H](N)C(=O)O` [alanine] it is “only pyruvate can significantly induce”. The entry for `O=C[C@@H](O)[C@H](O)[C@H](O)CO` [arabinose] is “only pyruvate can significantly induce”; for `O=C(O)[C@@H](O)[C@@H](O)[C@H](O)[C@@H](O)C(=O)O` [glucaric acid] it is “only pyruvate can significantly induce”; for `CC(O)C(=O)O` (stereo not shown) [lactic acid] it is “only pyruvate can significantly induce”. The entry for `OC[C@H]1O[C@@H](O[C@H]2[C@H](O)[C@@H](O)C(O)O[C@@H]2CO)[C@H](O)[C@@H](O)[C@H]1O` (stereo partly shown) [lactose] is “only pyruvate can significantly induce”; for `O=C[C@H](O)[C@@H](O)[C@H](O)CO` [xylose] it is “only pyruvate can significantly induce”; for `O=C(O)CCC(=O)C(=O)O` [α-ketoglutaric acid] it is “only pyruvate can significantly induce”.
